From patent publication US8163756B2 (priority 2004, dated 2012) come the findings set out here.

Where a name gives a salt, the structure may show the parent alone. Read-outs that look alike come from different tables or passages of the source.

What all share (type): biochemical
In assay [1] the target is T1, Abl kinase (Homo sapiens, UniProt P00519).
T1 sequence (P00519 229-512): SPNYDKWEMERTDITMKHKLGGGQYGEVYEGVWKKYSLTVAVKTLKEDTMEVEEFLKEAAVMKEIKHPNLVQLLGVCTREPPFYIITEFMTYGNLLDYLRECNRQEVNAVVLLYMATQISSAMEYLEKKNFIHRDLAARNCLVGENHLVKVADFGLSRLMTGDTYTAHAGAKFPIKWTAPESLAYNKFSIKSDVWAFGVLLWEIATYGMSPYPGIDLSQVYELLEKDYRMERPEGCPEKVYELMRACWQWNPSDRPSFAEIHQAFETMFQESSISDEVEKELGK
Kind of assay: Abl kinase assay A2 (as A1, 1.1 nM enzyme, 2 h pre-incubation, 0.5 mM ATP). As to the method: (§1) IC50 values were calculated from a series of percent inhibition values determined at a range of inhibitor concentrations using software routines as implemented in the GraphPad Prism software package.

For assay [2], the target named is T2, KDR kinase (Homo sapiens, UniProt P35968, DEL940-989/E990V). Nature of the assay: KDR kinase assay K2 (as K1, 2.1 nM enzyme, 2 h pre-incubation, 1.0 mM ATP). The protocol: as §1
The target in assay [3] is B-Raf(V599E) kinase (Homo sapiens, UniProt P15056, V600E). Kind of assay: B-Raf(V599E) kinase assay B1 (construct 1, MEK1 substrate, coupled spectrophotometric). The protocol: The test compounds were incubated with the reaction mixtureat 30° C. for 2 h. […] The reaction rate was calculated using the […] time frame. […] IC50 values were calculated from a series of percent inhibition values determined at a range of inhibitor concentrations using software routines as implemented in the GraphPad Prism software package.

The target in assay [4] is T2, KDR kinase. Kind of assay: KDR kinase assay K1 (pyruvate kinase/lactate dehydrogenase coupled, spectrophotometric). The note with it: Method K1; read-out: KDR Data (IC50). The protocol:
as §1

The target in assay [5] is phosphorylated p-38-alpha kinase (Homo sapiens, UniProt Q16539). Kind of assay: P-38 alpha kinase assay P1 (coupled spectrophotometric, 2 h pre-incubation).
Setting [6] is: Method A2, read-out: Abl Data (IC50).
[7] abbreviates: Method K2, read-out: KDR Data (IC50).
Where [8] appears, read: method P1 (2 h pre-incubation), read-out: P-38 Data.

T2 sequence (P35968 with tags, fused parts or gaps DEL940-989/E990V): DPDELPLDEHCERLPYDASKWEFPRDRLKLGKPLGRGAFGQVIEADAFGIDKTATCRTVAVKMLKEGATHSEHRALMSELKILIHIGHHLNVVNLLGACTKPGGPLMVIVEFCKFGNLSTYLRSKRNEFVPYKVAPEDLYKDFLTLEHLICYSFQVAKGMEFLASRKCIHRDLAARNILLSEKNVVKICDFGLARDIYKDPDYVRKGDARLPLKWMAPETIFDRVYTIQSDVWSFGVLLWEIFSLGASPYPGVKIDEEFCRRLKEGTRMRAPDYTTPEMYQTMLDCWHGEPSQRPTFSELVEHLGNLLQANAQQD
phosphorylated p-38-alpha kinase, sequence (Q16539 1-360 isoform Q16539-2): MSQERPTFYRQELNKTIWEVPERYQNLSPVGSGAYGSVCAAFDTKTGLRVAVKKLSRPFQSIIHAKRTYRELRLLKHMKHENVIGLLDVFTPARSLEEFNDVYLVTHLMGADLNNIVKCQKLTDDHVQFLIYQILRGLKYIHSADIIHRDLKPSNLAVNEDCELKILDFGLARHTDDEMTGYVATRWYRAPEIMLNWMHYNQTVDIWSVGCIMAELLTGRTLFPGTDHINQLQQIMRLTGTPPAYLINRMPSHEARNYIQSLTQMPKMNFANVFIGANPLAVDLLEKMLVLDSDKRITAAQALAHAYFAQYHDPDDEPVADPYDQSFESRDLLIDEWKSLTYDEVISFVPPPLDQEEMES
B-Raf(V599E) kinase, sequence (P15056 with tags, fused parts or gaps V600E): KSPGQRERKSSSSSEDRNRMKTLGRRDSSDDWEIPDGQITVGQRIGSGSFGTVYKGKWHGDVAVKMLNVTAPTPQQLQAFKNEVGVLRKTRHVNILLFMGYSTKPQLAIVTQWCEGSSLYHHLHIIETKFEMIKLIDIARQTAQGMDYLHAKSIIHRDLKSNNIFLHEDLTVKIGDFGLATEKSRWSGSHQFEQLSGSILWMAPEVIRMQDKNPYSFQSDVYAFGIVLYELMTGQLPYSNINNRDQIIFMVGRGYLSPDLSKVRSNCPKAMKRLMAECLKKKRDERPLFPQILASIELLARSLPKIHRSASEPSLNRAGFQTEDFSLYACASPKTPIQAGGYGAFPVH

On to `CC(C)(C)c1cc(NC(=O)Nc2cccc(Oc3cccnc3)c2)n(-c2ccc3[nH]ccc3c2)n1` [Example 116, 1-(3-t-butyl-1-(1H-indol-5-yl)-1H-pyrazol-5-yl)-3-(3-(pyridin-3-yloxy)phenyl)urea], for which the results for the IC50 in assay [1] (setting [6]), in assay [2] (setting [7]) and in assay [3] were 6.6 nM, 5 nM and 5.9 nM, respectively.

As for `CC(C)(C)c1cc(NC(=O)Nc2cccc(Cl)c2Cl)n(-c2ccc3c(c2)CNCC3)n1` [Example 123, 1-[3-t-butyl-1-(1,2,3,4-tetrahydroisoquinolin-7-yl)-1H-pyrazol-5-yl]-3-(2,3-dichloro-phenyl)urea], the IC50 in assay [1] (setting [6]) was 290 nM; in assay [4], 190 nM; in assay [3] it was 4.9 nM.

Regarding `CC(C)(C)c1cc(NC(=O)Nc2ccc(-c3cccc4c3CNC4=O)cc2)n(-c2ccc3c(c2)CCNC3)n1` [Example 151, 1-(3-t-butyl-1-(1,2,3,4-tetrahydroisoquinolin-6-yl)-1H-pyrazol-5-yl)-3-(4-(1-oxoisoindolin-4-yl)phenyl)urea hydrochloride], the IC50 in assay [1] is 8 nM; in assay [2], 3.5 nM.

With `CC(C)(C)c1cc(NC(=O)Nc2cc(F)c(F)cc2F)n(-c2cc(CC(=O)NCC(O)CO)c3ccccc3c2)n1` (stereo not drawn) [Example 94, 1-(3-t-butyl-1-(4-(2-(2,3-dihydroxypropyl-amino)-2-oxoethyl)naphthalen-2-yl)-1H-pyrazol-5-yl)-3-(2,4,5-trifluorophenyl)urea], the IC50 was determined as 130 nM in assay [1] (setting [6]), 4.8 nM in assay [3] and 68 nM in assay [5] (setting [8]).

Take `CNC(=O)c1cc(Oc2ccc(NC(=O)Nc3cc(C(C)(C)C)nn3-c3ccc4nc(N(C)C)ccc4c3)cc2)ccn1` [Example 175, 1-(3-t-butyl-1-(2-(dimethylamino)quinolin-6-yl)-1H-pyrazol-5-yl)-3-(4-(2-(methylcarbamoyl)pyridin-4-yloxy)phenyl)urea]: the IC50 in assay [1] (setting [6]) stood at 1.5 nM; in assay [3], 30 nM; in assay [5] (setting [8]) it was 160 nM.

For `CC(C)(C)c1cc(NC(=O)Nc2cccc(Oc3cccnc3)c2)n(-c2ccc3[nH]c(=O)ccc3c2)n1` [Example 156, 1-(3-t-butyl-1-(2-oxo-1,2-dihydroquinolin-6-yl)-1H-pyrazol-5-yl)-3-(3-(pyridin-3-yloxy)phenyl)urea], the IC50 amounted to 5 nM in assay [1] (setting [6]), 3.2 nM in assay [2] (setting [7]) and 4.1 nM in assay [3].

As for `Cn1c(=O)c(-c2cccc(NC(=O)Nc3cc(C(C)(C)C)nn3-c3ccc4c(c3)CC(C(N)=O)NC4)c2)cc2cncnc21` (stereo not drawn) [Example 185, 1-(3-t-butyl-1-(3-carbamoyl-1,2,3,4-tetrahydroisoquinolin-6-yl)-1H-pyrazol-5-yl)-3-(3-(8-methyl-7-oxo-7,8-dihydropyrido[2,3-d]pyrimidin-6-yl)phenyl)urea dihydrochloride], the values for the IC50 in assay [1], in assay [3] and in assay [5] were 2.7 nM, 6.9 nM and 23 nM, respectively.

Turning to `CNC(=O)c1cc(Oc2ccc(NC(=O)Nc3cc(C(C)(C)C)nn3-c3ccc4[nH]c(=O)ccc4c3)cc2)ccn1` [Example 159, 1-(3-t-butyl-1-(2-oxo-1,2-dihydroquinolin-6-yl)-1H-pyrazol-5-yl)-3-(4-(2-(methylcarbamoyl)pyridin-4-yloxy)phenyl)urea], the results for the IC50 in assay [1] (setting [6]), in assay [3] and in assay [5] (setting [8]) were 2.3 nM, 14 nM and 72 nM, respectively.

Turning to `CC(C)(C)c1cc(NC(=O)Nc2cc(F)cc(F)c2F)n(-c2cc(CO)c3ccccc3c2)n1` [Example 65, 1-(3-t-butyl-1-(4-(hydroxymethyl)naphthalen-2-yl)-1H-pyrazol-5-yl)-3-(2,3,5-trifluorophenyl)urea], the IC50 in assay [1] (setting [6]) amounted to 110 nM; in assay [3] it was 3 nM.

For the compound `Cn1c(=O)c(-c2cccc(NC(=O)Nc3cc(C(C)(C)C)nn3-c3ccc4c(c3)CCNC4)c2)cc2cncnc21` [Example 149, 1-(3-t-butyl-1-(1,2,3,4-tetrahydroisoquinolin-6-yl)-1H-pyrazol-5-yl)-3-(3-(8-methyl-7-oxo-7,8-dihydropyrido[2,3-d]pyrimidin-6-yl)phenyl)urea], the IC50 amounted to 1.2 nM in assay [1] (setting [6]) and 9.3 nM in assay [3].

For the compound `CC(C)(C)c1cc(NC(=O)Nc2cccc(Oc3cccnc3)c2)n(-c2cc(CO)c3ccccc3c2)n1` [Example 67, 1-(3-t-butyl-1-(4-(hydroxymethyl)naphthalen-2-yl)-1H-pyrazol-5-yl)-3-(3-(pyridin-3-yloxy)phenyl)urea], the IC50 is 1 nM in assay [1] (setting [6]), 4.8 nM in assay [3] and 35 nM in assay [5] (setting [8]).

For `CC(C)(C)c1cc(NC(=O)Nc2cccc(Oc3cccnc3)c2)n(-c2cc(CN)c3ccccc3c2)n1` [Example 72, 1-(1-(4-(aminomethyl)naphthalen-2-yl)-3-t-butyl-1H-pyrazol-5-yl)-3-(3-(pyridin-3-yloxy)phenyl)urea], the IC50 is 2 nM in assay [1] (setting [6]), 8.5 nM in assay [2] (setting [7]) and 4.4 nM in assay [3].

As to `CNC(=O)c1cc(Oc2ccc(NC(=O)Nc3cc(C(C)(C)C)nn3-c3ccc4c(c3)CCNC4)cc2)ccn1` [Example 148, 1-(3-t-butyl-1-(1,2,3,4-tetrahydroisoquinolin-6-yl)-1H-pyrazol-5-yl)-3-(4-(2-(methylcarbamoyl)pyridin-4-yloxy)phenyl)urea], the values for the IC50 in assay [1] (setting [6]) and in assay [3] were 1.2 nM and 31 nM, respectively.

With `CNC(=O)C1Cc2cc(-n3nc(C(C)(C)C)cc3NC(=O)Nc3cccc(Oc4cccnc4)c3)ccc2CN1` (stereo not drawn) [Example 190, 1-(3-t-butyl-1-(3-(methylcarbamoyl)-1,2,3,4-tetrahydroisoquinolin-6-yl)-1H-pyrazol-5-yl)-3-(3-(pyridin-3-yloxy)phenyl)urea], the IC50 in assay [1] (setting [6]) is 4 nM; in assay [2] (setting [7]) it was 8.1 nM; in assay [5] (setting [8]) it was 78 nM.

Consider `CC(C)(C)c1cc(NC(=O)Nc2cccc(Oc3cncc(Cl)c3)c2)n(-c2ccc3c(c2)CCNC3)n1` [Example 150, 1-(3-t-butyl-1-(1,2,3,4-tetrahydroisoquinolin-6-yl)-1H-pyrazol-5-yl)-3-(3-(5-chloropyridin-3-yloxy)phenyl)urea], for which the IC50 in assay [1] (setting [6]) came out at 1.3 nM; in assay [3], 4.7 nM.

In the case of `CC(C)(C)c1cc(NC(=O)Nc2cccc(C#N)c2)n(-c2cc(CN)c3ccccc3c2)n1` [Example 73, 1-(1-(4-(aminomethyl)naphthalen-2-yl)-3-t-butyl-1H-pyrazol-5-yl)-3-(3-cyanophenyl)urea], the IC50 turned out to be 190 nM in assay [1] (setting [6]) and 45 nM in assay [3].

Turning to `CC(C)(C)c1cc(NC(=O)Nc2cccc(Cl)c2Cl)n(-c2ccc3c(c2)CCNC3)n1` [Example 138, 1-(3-t-butyl-1-(1,2,3,4-tetrahydroisoquinolin-6-yl)-1H-pyrazol-5-yl)-3-(2,3-dichlorophenyl)urea], the IC50 in assay [1] (setting [6]) was found to be 100 nM; in assay [4], 300 nM; in assay [3], 3.2 nM; in assay [5] (setting [8]) it was 140 nM.

Take `CC(C)(C)c1cc(NC(=O)Nc2cccc(Oc3cccnc3)c2)n(-c2ccc3c(c2)CCN3)n1` [Example 119, 1-(3-t-butyl-1-(indolin-5-yl)-1H-pyrazol-5-yl)-3-(3-(pyridin-3-yloxy)phenyl)urea]: the IC50 worked out at 12 nM in assay [1] (setting [6]), 18 nM in assay [4], 9.1 nM in assay [3] and 60 nM in assay [5] (setting [8]).

On to `CC(C)(C)c1cc(NC(=O)Nc2cccc(Oc3cccnc3)c2)n(-c2cc(CC(=O)NCC(O)CO)c3ccccc3c2)n1` (stereo not drawn) [Example 97, 1-(3-t-butyl-1-(4-(2-(2,3-dihydroxypropyl-amino)-2-oxoethyl)naphthalen-2-yl)-1H-pyrazol-5-yl)-3-(3-(pyridin-3-yloxy)phenyl)urea], for which the IC50 worked out at 1.5 nM in assay [1] (setting [6]) and 7.2 nM in assay [3].

`Cc1ccc(NC(=O)Nc2cc(C(C)(C)C)nn2-c2ccc3c(c2)CCNC3)cc1Nc1nccc(-c2cccnc2)n1` [Example 153, 1-(3-t-butyl-1-(1,2,3,4-tetrahydroisoquinolin-6-yl)-1H-pyrazol-5-yl)-3-(4-methyl-3-(4-(pyridin-3-yl)pyrimidin-2-ylamino)phenyl)urea dihydrochloride]: the results for the IC50 in assay [1] and in assay [3] were 1.2 nM and 27 nM, respectively.

Turning to `NC(=O)Cc1cccc(-c2ccc(C(F)(F)F)cc2NC(=O)Nc2ccc(-c3cccc4c3CNC4=O)cc2)c1` [Example 33, [1,1′-biphenyl]-2′-(3-(4-(1-oxoisoindolin-4-yl)phenyl)ureido)-4′-(trifluoromethyl)-3-acetic acid amide], the IC50 in assay [1] (setting [6]) was 250 nM; in assay [2] (setting [7]) it was 14 nM; in assay [5] (setting [8]) it was 300 nM.

Turning to `Cn1c(=O)c(-c2cccc(NC(=O)Nc3cc(C(C)(C)C)nn3-c3ccc4c(c3)CCC(=O)N4)c2)cc2cncnc21` [Example 132, 1-(3-t-butyl-1-(2-oxo-1,2,3,4-tetrahydroquinolin-6-yl)-1H-pyrazol-5-yl)-3-(3-(8-methyl-7-oxo-7,8-dihydropyrido[2,3-d]pyrimidin-6-yl)phenyl)urea], the IC50 in assay [1] (setting [6]) worked out at 13 nM; in assay [3] it was 4.8 nM; in assay [5] (setting [8]) it was 59 nM.
